Laboratory results as given in ChEMBL document CHEMBL3045833, “Synthesis and antifungal activity of novel 7-O-substituted pyridyl-4-methyl coumarin derivatives” (2013).
≈ marks a conversion by molar mass, not a printed value.

Assays:
Assay type in all cases: functional
Aspergillus fumigatus = assay: Antifungal activity against Aspergillus fumigatus assessed as growth inhibition by NCCLS microbroth dilution method
Kluyveromyces marxianus = assay: Antifungal activity against Kluyveromyces marxianus assessed as growth inhibition by NCCLS microbroth dilution method
Candida albicans [1] = assay: Antifungal activity against Candida albicans Y0109 assessed as growth inhibition after 24 hr by NCCLS microbroth dilution method; settings: Y0109, 24 h
Candida tropicalis = assay: Antifungal activity against Candida tropicalis assessed as growth inhibition by NCCLS microbroth dilution method
Cryptococcus neoformans = assay: Antifungal activity against Cryptococcus neoformans assessed as growth inhibition after 72 hr by NCCLS microbroth dilution method
Trichophyton rubrum = assay: Antifungal activity against Trichophyton rubrum assessed as growth inhibition by NCCLS microbroth dilution method
Candida parapsilosis = assay: Antifungal activity against Candida parapsilosis assessed as growth inhibition by NCCLS microbroth dilution method; settings: Lodderomyces parapsilosis
Candida albicans [2] = assay: Antifungal activity against Candida albicans SC5314 assessed as growth inhibition after 24 hr by NCCLS microbroth dilution method; settings: SC5314, 24 h

SMILES | MIC80 (Aspergillus fumigatus) | MIC80 (Kluyveromyces marxianus) | MIC80 (Candida albicans [1]) | MIC80 (Candida tropicalis) | MIC80 (Cryptococcus neoformans) | MIC80 (Trichophyton rubrum) | MIC80 (Candida parapsilosis) | MIC80 (Candida albicans [2])
Cc1cc(=O)oc2cc(Oc3ccc(NC(=O)c4cccs4)cn3)ccc12 | > 64 µg/mL | 32 µg/mL | 16 µg/mL (≈ 42.3 µM) | 16 µg/mL | 32 µg/mL (≈ 84.6 µM) | 16 µg/mL | 32 µg/mL | 32 µg/mL (≈ 84.6 µM)
Cc1cc(=O)oc2cc(Oc3ccc(NC(=O)Cc4c[nH]c5ccccc45)cn3)ccc12 | > 64 µg/mL | > 64 µg/mL | 64 µg/mL (≈ 150 µM) | > 64 µg/mL | 8 µg/mL (≈ 18.8 µM) | 16 µg/mL | > 64 µg/mL | > 64 µg/mL
Cc1cc(=O)oc2cc(Oc3ccc([N+](=O)[O-])cn3)ccc12 | > 64 µg/mL | > 64 µg/mL | 64 µg/mL (≈ 215 µM) | > 64 µg/mL | 64 µg/mL (≈ 215 µM) | 64 µg/mL | 32 µg/mL | > 64 µg/mL
Cc1cc(=O)oc2cc(Oc3ccc(N)cn3)ccc12 | > 64 µg/mL | > 64 µg/mL | 16 µg/mL (≈ 59.6 µM) | > 64 µg/mL | > 64 µg/mL | 32 µg/mL | 32 µg/mL | > 64 µg/mL
CC(=O)Nc1ccc(Oc2ccc3c(C)cc(=O)oc3c2)nc1 | > 64 µg/mL | 16 µg/mL | 1 µg/mL (≈ 3.22 µM) | 8 µg/mL | 8 µg/mL (≈ 25.8 µM) | 16 µg/mL | 1 µg/mL | 0.25 µg/mL (≈ 0.806 µM)
Cc1cc(=O)oc2cc(Oc3ccc(NC(=O)C(F)(F)F)cn3)ccc12 | > 64 µg/mL | 32 µg/mL | 0.25 µg/mL (≈ 0.686 µM) | 16 µg/mL | 32 µg/mL (≈ 87.8 µM) | 16 µg/mL | 1 µg/mL | 0.25 µg/mL (≈ 0.686 µM)
Cc1cc(=O)oc2cc(Oc3ccc(NC(=O)C(C)(C)C)cn3)ccc12 | > 64 µg/mL | 16 µg/mL | 4 µg/mL (≈ 11.4 µM) | 32 µg/mL | 32 µg/mL (≈ 90.8 µM) | 1 µg/mL | 32 µg/mL | 4 µg/mL (≈ 11.4 µM)
Cc1cc(=O)oc2cc(Oc3ccc(NC(=O)CN(C)C)cn3)ccc12 | > 64 µg/mL | 32 µg/mL | 16 µg/mL (≈ 45.3 µM) | 1 µg/mL | 16 µg/mL (≈ 45.3 µM) | 16 µg/mL | 32 µg/mL | 32 µg/mL (≈ 90.6 µM)
Cc1cc(=O)oc2cc(Oc3ccc(NC(=O)CC#N)cn3)ccc12 | > 64 µg/mL | 16 µg/mL | 16 µg/mL (≈ 47.7 µM) | > 64 µg/mL | 16 µg/mL (≈ 47.7 µM) | 0.25 µg/mL | 4 µg/mL | 0.25 µg/mL (≈ 0.746 µM)
Cc1cc(=O)oc2cc(Oc3ccc(NC(=O)C4CC4)cn3)ccc12 | > 64 µg/mL | 32 µg/mL | > 64 µg/mL | 16 µg/mL | 32 µg/mL (≈ 95.1 µM) | 8 µg/mL | 8 µg/mL | 16 µg/mL (≈ 47.6 µM)
Cc1cc(=O)oc2cc(Oc3ccc(NC(=O)C4CCCCC4)cn3)ccc12 | > 64 µg/mL | > 64 µg/mL | > 64 µg/mL | > 64 µg/mL | 32 µg/mL (≈ 84.6 µM) | 8 µg/mL | 4 µg/mL | > 64 µg/mL
Cc1cc(=O)oc2cc(Oc3ccc(NC(=O)c4ccccc4)cn3)ccc12 | > 64 µg/mL | 32 µg/mL | 4 µg/mL (≈ 10.7 µM) | 16 µg/mL | 16 µg/mL (≈ 43 µM) | 8 µg/mL | 1 µg/mL | 16 µg/mL (≈ 43 µM)
Cc1cc(=O)oc2cc(Oc3ccc(NC(=O)c4ccccn4)cn3)ccc12 | > 64 µg/mL | 16 µg/mL | 16 µg/mL (≈ 42.9 µM) | 16 µg/mL | 32 µg/mL (≈ 85.7 µM) | 16 µg/mL | 32 µg/mL | 16 µg/mL (≈ 42.9 µM)
Cc1cc(=O)oc2cc(Oc3ccc(NC(=O)c4cccnc4)cn3)ccc12 | > 64 µg/mL | 16 µg/mL | 32 µg/mL (≈ 85.7 µM) | 32 µg/mL | 16 µg/mL (≈ 42.9 µM) | 32 µg/mL | 32 µg/mL | 32 µg/mL (≈ 85.7 µM)
Cc1cc(=O)oc2cc(Oc3ccc(NC(=O)c4ccncc4)cn3)ccc12 | > 64 µg/mL | 8 µg/mL | 16 µg/mL (≈ 42.9 µM) | 16 µg/mL | 32 µg/mL (≈ 85.7 µM) | 32 µg/mL | 0.25 µg/mL | 16 µg/mL (≈ 42.9 µM)
Cc1cc(=O)oc2cc(Oc3ccc(NC(=O)c4ccco4)cn3)ccc12 | > 64 µg/mL | 16 µg/mL | 16 µg/mL (≈ 44.2 µM) | 8 µg/mL | > 64 µg/mL | 16 µg/mL | > 64 µg/mL | 32 µg/mL (≈ 88.3 µM)
Cc1cc(=O)oc2cc(Oc3ccc(NC(=O)c4cnccn4)cn3)ccc12 | > 64 µg/mL | 16 µg/mL | 4 µg/mL (≈ 10.7 µM) | 1 µg/mL | 1 µg/mL (≈ 2.67 µM) | 0.25 µg/mL | 32 µg/mL | 4 µg/mL (≈ 10.7 µM)
Cc1cnc(C(=O)Nc2ccc(Oc3ccc4c(C)cc(=O)oc4c3)nc2)cn1 | > 64 µg/mL | 4 µg/mL | 16 µg/mL (≈ 41.2 µM) | 1 µg/mL | 4 µg/mL (≈ 10.3 µM) | 16 µg/mL | > 64 µg/mL | 16 µg/mL (≈ 41.2 µM)
Cc1cc(=O)oc2cc(Oc3ccc(NC(=O)Cc4ccccc4)cn3)ccc12 | > 64 µg/mL | > 64 µg/mL | > 64 µg/mL | > 64 µg/mL | > 64 µg/mL | > 64 µg/mL | > 64 µg/mL | > 64 µg/mL
Cc1cc(=O)oc2cc(Oc3ccc(NC(=O)/C=C/c4ccccc4)cn3)ccc12 | > 64 µg/mL | 16 µg/mL | > 64 µg/mL | > 64 µg/mL | > 64 µg/mL | 4 µg/mL | > 64 µg/mL | > 64 µg/mL
C[C@@H]1[C@H](O)[C@@H](C)/C=C/C=C/C=C/C=C/C=C/C=C/C=C/[C@H](O[C@@H]2O[C@H](C)[C@@H](O)[C@H](N)[C@@H]2O)C[C@@H]2O[C@](O)(C[C@@H](O)C[C@@H](O)[C@H](O)CC[C@@H](O)C[C@@H](O)CC(=O)O[C@H]1C)C[C@H](O)[C@H]2C(=O)O [AMPHOTERICIN B] | 1 µg/mL | 0.25 µg/mL | 0.25 µg/mL (≈ 0.271 µM) | 1 µg/mL | 1 µg/mL (≈ 1.08 µM) | 1 µg/mL | 1 µg/mL | 0.25 µg/mL (≈ 0.271 µM)
OC(Cn1cncn1)(Cn1cncn1)c1ccc(F)cc1F [FLUCONAZOLE] | > 64 µg/mL | 4 µg/mL | 0.25 µg/mL (≈ 0.816 µM) | 4 µg/mL | 4 µg/mL (≈ 13.1 µM) | 1 µg/mL | 4 µg/mL | 0.25 µg/mL (≈ 0.816 µM)
Cc1cc(=O)oc2cc(O)ccc12 [HYMECROMONE] | > 64 µg/mL | > 64 µg/mL | > 64 µg/mL | > 64 µg/mL | > 64 µg/mL | 32 µg/mL | 32 µg/mL | > 64 µg/mL
